Laboratory results reported in patent publication US20190275003A1, “ENCAPSULATION OF PHOSPHODIESTERASE INHIBITORS TO TREAT ALCOHOLIC LIVER DISEASE” (University of Louisville Research Foundation, Inc., priority 2016, published 2019).

Assays:
[1] = system: TNF; experiment: LPS mediated TNF expression in ethanol treated cells; type: cell-based; conditions: data not shown
Text: Studies in monocytes have shown that cAMP plays an important role in regulating TNF expression, and that the elevation of cellular cAMP suppresses TNF production. Therefore, the instant inventors evaluated (1) the effects of chronic ethanol exposure on the cellular levels of cAMP, and (2) TNF expression in monocytes in vitro and in rat primary hepatic Kupffer cells obtained from a clinically relevant enteral alcohol feeding model of alcoholic liver disease (ALD). […] Consistent with these decreased cAMP levels, ethanol led to an increase in LPS-inducible TNF mRNA expression (FIG. 2) and TNF protein, without any change in the TNF mRNA stability (data not shown). Enhancement of cellular cAMP with dbcAMP abrogated LPS mediated TNF expression in ethanol treated cells (data not shown).

[2] = system: mouse aortic endothelial cells (MAECs); experiment: Fusion rate of rolipram-loaded vesicles to MAECs; type: cell-based
Text: FIGS. 8A-B show the fusion rate of FLVs-Rolipram to RAW cells and mouse aortic endothelial cells (MAECs) in the presence or absence of excipients in the vehicle. Using fluorescent-labeled FLVs and a Nanoparticle Tracking Analysis instrument to quantify FLV numbers, the fusion rate of vesicles to RAW cells was quantified over time. (A) Lipid vesicles formulated with DOPC/POPA (3:2) loaded with rolipram (DOPC:POPA-R) fused to RAW cells at a faster rate than DOPC vesicles loaded with rolipram (DOPC). […] FLVs=fusogenic lipid vesicles, SOA=Sucrose octaacetate, SAIB=acetate isobutyrate.
Studies quantifying the fusion rate of vesicles loaded with rolipram to RAW or mouse aortic endothelial cells (MAECs) were performed. In the first experiment, the fusion rate of lipid vesicles to RAW cells using a highly fusogenic vesicle formulated with DOPC/POPA was compared to less fusogenic vesicle formulated with DOPC (FIG. 8A). […] In the second experiment, the fusion rate of FLVs to MAECs using the excipients sucrose octaacetate (SOA) or SAIB and the same vesicle lipid formulations as in the experiment above were performed. […] Also, SOA an excipient used to enhance the stability of FLVs-rolipram during storage appears to augment the fusion rate of FLVs.

[3] = Encapsulation efficiency of rolipram in FLVs; type: physicochemical; conditions: FLVs 10 mg/mL lipid, rolipram 0.75 mg/mL, diluted 5 or 10 times
Procedure: FIGS. 5A-C show the encapsulation efficiency percent of rolipram when 10 (A), 12.5 (B) and 15 mg/mL of FLV lipid (C) was hydrated with buffer containing 0.75 mg/mL of rolipram and diluted in water five or 10 times. The percentage of free rolipram in buffer was calculated by measuring the amount of free drug in buffer after FLVs in solution were filtered out. More than 50% of drug remained encapsulated with either of the dilutions over time. The amount of rolipram associated with FLVs appeared to fluctuate over time but it stabilized at the end of […]. FLVs=fusogenic vesicles.
After dilution the rolipram EE % of FLVs was similar when either excipient or no excipient was utilized. FLVs=fusogenic lipid vesicles, SOA=Sucrose octaacetate, SAIB=acetate isobutyrate.
To evaluate the ability of the FLVs to retain rolipram in an aqueous system, 0.75 mg/mL of rolipram was loaded into the lipid bilayer and internal liquid compartment of FLVs using four concentrations of lipid: 5, 10, 12.5, and 15 mg/ml. The rolipram encapsulation efficiency was quantified.
To evaluate the effect of dilution on encapsulation efficiency of FLVs-rolipram, different concentrations of FLV lipid (10, 12.5 and 15 mg/ML) were hydrated with the same amount of rolipram (0.75 mg/mL) and then diluted in water 5 and 10 times. Rolipram levels in the external buffer compartment were measured over a 90 min period. […]

[4] = system: TNF production in RAW 264.7 cells; experiment: RAW cell assay: LPS-induced TNF production (ELISA); type: cell-based, mouse; conditions: LPS 100 ng/mL 18 h, SAIB 0.5 mg/mL, FLVs 10 mg/mL lipid
Procedure: Cells were treated with SAIB (0.5 mg/mL), FLVs (10 mg/mL of lipid) with SAIB (FLV-SAIB) or FLVs-rolipram 0.75 mg/mL (FLV-Rol) without SAIB and stimulated with LPS (100 ng/mL) for 18 h. The effect of SAIB was evaluated by quantifying TNF production using an ELISA kit. SAIB alone appears to exert a beneficial effect, and FLVs with SAIB have a greater beneficial effect. FLVs=fusogenic lipid vesicles, LPS=endotoxin, SAIB=acetate isobutyrate.
Cells were treated with 0.73 mg/mL rolipram (Rol), FLVs only, or 0.73 mg/mL of FLVs-rolipram (FLVs-Rol) and stimulated with LPS (100 ng/mL) for 24 h. Control cells received treatment but no LPS. TNF in media was measured using an ELISA kit. UT=untreated cells, FLVs=fusogenic vesicles, LPS=endotoxin.
The effect of adding SAIB (0.5 mg/mL) to the vehicle was tested in vitro using RAW cells pulsed with LPS (100 ng/mL) and evaluated for TNF production. Rolipram (0.75 mg/mL) encapsulated in of 10 mg/mL of lipid without SAIB was used as a control.
An in vitro screening assay to evaluate the effectiveness of the FLVs-rolipram formulations was developed. The assay uses a murine macrophage cell line (RAW 264.7 cells), which produces high levels of TNF in response to LPS stimulation. […] After 24 h, TNF protein was measured in cell free supernatant by ELISA kit (FIG. 14).

[5] = system: α2-adrenoceptor-mediated xylazine/ketamine-induced anesthesia; experiment: Duration of xylazine/ketamine anesthesia (behavioral correlate of emesis); type: in vivo, male C57BL/6 mice; conditions: free rolipram IV, mean of the 3 groups (1.6, 3.3 and 6.6 mg/kg bw); paired control 75.1±4.7 min
Procedure: FLVs-Rol=Fusogenic lipid vesicles-rolipram.
Safety pharmacology studies were conducted to determine the dose-response relationship of adverse effects observed by rolipram. The primary side effect of rolipram is the inhibition of PDE4 activity in the CNS, which leads to emesis in humans. The mechanism of the emetic response associated with PDE4 inhibitors is thought to produce a pharmacological response analogous to that of presynaptic α2-adrenoceptor inhibition, by elevating intracellular levels of cAMP in noradrenergic neurons. Consequently, PDE4 inhibitors remove an inhibitory mechanism that modulates the release of mediators (5-HT, substance P, noradrenaline) involved in the onset of the emetic reflex. […]
Since rodents are a non-vomiting species, examining rolipram-induced side effects in rodents is particularly difficult.^34-36 To circumvent this problem, a behavioral correlate of emesis model in mice was utilized.^35 In this model, rolipram is used to reverse the duration of α2-adrenoceptor-mediated xylazine/ketamine-induced anesthesia, which is temporally quantified by the return of the righting reflex. […] After 15 min, the mice were placed on a controlled heating pad in the dorsal recumbent position and the duration of anesthesia was determined by timing the return of the righting reflex. […]

[6] = system: cholestatic liver injury and fibrosis; conditions: rat, in vivo; cited from earlier work
[7] = system: TNF; experiment: LPS-stimulated TNF expression in human PBMCs pre-treated with rolipram; type: cell-based
Procedure: PBMCs isolated from a healthy individual were pre-treated with rolipram (1, 5, and 10 μM) for 30 minutes and further stimulated with LPS (1 μg/ml) for 6 hours. Cell-free supernatants were analyzed for TNF expression by ELISA. Rol=rolipram. TNF=tumor necrosis factor-alpha, FLVs=fusogenic lipid vesicles.
The effect of chronic ethanol exposure on PDE4 gene expression and activity in human THP-1 and mouse RAW macrophages was evaluated next, as a mechanism for the decreased intracellular cAMP levels and the increased LPS-stimulated TNF.^4 PDE4 (predominantly present in monocytes) degrades and inactivates cAMP, with PDE4B playing a critical role in LPS signaling. It was shown that chronic alcohol increased LPS-inducible PDE4B mRNA expression (FIG. 2).

[8] = system: alcoholic hepatitis; conditions: human clinical studies; cited from earlier work
[9] = system: liver injury and fibrosis; conditions: several animal models; cited from earlier work

CCCC(=O)Nc1ncnc2c1ncn2[C@@H]1O[C@@H]2COP(=O)(O)O[C@H]2[C@H]1OC(=O)CCC [dbcAMP]
LPS mediated TNF expression [1]: abrogated

CC(=O)OC[C@H]1O[C@@](COC(C)=O)(O[C@H]2O[C@H](COC(C)=O)[C@@H](OC(C)=O)[C@H](OC(C)=O)[C@H]2OC(C)=O)[C@@H](OC(C)=O)[C@@H]1OC(C)=O [SOA, sucrose octaacetate]
effect of excipient on fusion rate of DOPC/POPA FLVs-rolipram to MAECs [2]: enhanced the fusion rate | effect of excipient on rolipram encapsulation efficiency [3]: did not significantly alter

sucrose acetate isobutyrate [SAIB]
TNF production [4]: reduced the effect of LPS | effect of excipient on fusion rate of DOPC/POPA FLVs-rolipram to MAECs [2]: appeared to decrease the fusion rate | effect of excipient on rolipram encapsulation efficiency [3]: did not significantly alter

COc1ccc(C2CNC(=O)C2)cc1OC1CCCC1 (stereo not drawn) [rolipram, 4-(3-Cyclopentyloxy-4-methoxy-phenyl) pyrrolidin-2-one]
mean anesthesia time [5]: 48.6 ± 5.5 min | protection against cholestatic liver injury and fibrosis [6]: significant protection | TNF mRNA ([7]; human PBMCs stimulated with LPS, data not shown): significantly downregulated | TNF protein ([7]; human PBMCs, rolipram 1, 5, 10 μM 30 min, LPS 1 μg/ml 6 h, ELISA, dose-dependent): significantly downregulated

CC(=O)CCCCn1c(=O)c2c(ncn2C)n(C)c1=O [Pentoxifylline]
mortality in patients with AH [8]: decreased mortality | liver injury and fibrosis [9]: attenuate liver injury and fibrosis
